Results reported in article PMC5706701, “Development of a homogenous high-throughput assay for inositol hexakisphosphate kinase 1 activity” (PLoS ONE, 2017).
Counter-ions that a name gives are not always drawn. Like-named read-outs stand apart in the source and are kept apart here.

Target: T1, Human IP6K1 (Homo sapiens, UniProt Q92551)
T1 construct: GST (N, cleaved yes); made in house; host or cells: C43 E. coli, pGEX-6P-2
Assay: IP6K1 high-throughput screen of the Sigma LOPAC (ADP-Glo Max, single point);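 further: final compound concentration 10µM in 5% DMSO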
Format: biochemical

[1] = LOPAC single-point screen, ADP-Glo Max luminescence raw signal per well
[2] = LOPAC single-point screen, Z-score relative to plate average and StDev
[3] = LOPAC single-point screen, Z-score from plate average and StDev
[4] = LOPAC single-point screen, ADP-Glo Max raw signal per well
[5] = LOPAC single-point screen, Z-score against plate average and StDev
[6] = LOPAC single-point screen, Z-score from raw signal with plate average and StDev
[7] = Sigma LOPAC single-point screen, ADP-Glo Max raw signal per well
[8] = Sigma LOPAC single-point screen, Z-score from plate average and StDev

T1 sequence (Q92551 whole entry): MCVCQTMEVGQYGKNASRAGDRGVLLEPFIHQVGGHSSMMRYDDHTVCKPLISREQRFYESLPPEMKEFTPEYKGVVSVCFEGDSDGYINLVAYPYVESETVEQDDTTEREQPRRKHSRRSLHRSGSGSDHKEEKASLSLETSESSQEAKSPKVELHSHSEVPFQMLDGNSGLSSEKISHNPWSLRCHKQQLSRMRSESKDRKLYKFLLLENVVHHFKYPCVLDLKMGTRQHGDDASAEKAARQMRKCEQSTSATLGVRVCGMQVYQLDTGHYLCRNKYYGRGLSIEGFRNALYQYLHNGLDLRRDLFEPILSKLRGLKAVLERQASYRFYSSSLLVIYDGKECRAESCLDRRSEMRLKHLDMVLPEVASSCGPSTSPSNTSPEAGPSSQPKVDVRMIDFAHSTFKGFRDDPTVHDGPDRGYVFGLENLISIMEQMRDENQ

## R(-)-SCH-12679 maleate
[1]
  Raw Signal: 53479
[2]
  Z-score: -0.4944

## CN1[C@@H]2CC[C@H]1C[C@@H](OC(=O)[C@H](CO)c1ccccc1)C2 [L-Hyoscyamine]
[1]
  Raw Signal: 63094
[3]
  Z-score: 1.61

## CN1CCc2cc(Cl)c(O)cc2[C@@H](c2ccccc2)C1.Cl [R(+)-SCH-23390 hydrochloride]
[4]
  Raw Signal: 55189
[5]
  Z-score: 0.004461

## CSC(=N)N.CSC(=N)N.O=S(=O)(O)O [S-Methylisothiourea hemisulfate]
[4]
  Raw Signal: 51759
[6]
  Z-score: -0.4427

## CC(COc1ccc(/C=C/c2ccccc2)cc1)[N+](C)(C)C.[I-] (stereo not drawn)
[1]
  Raw Signal: 63739
[3]
  Z-score: 1.499

## CP(=O)(O)C1=CCNCC1 [TPMPA]
[7]
  Raw Signal: 59668
[8]
  Z-score: 0.708

## CC[N+](CC)(CC)CC [Tetraethylammonium chloride]
  Raw Signal: 56416
  Z-score: 0.0762

## CN1CCc2cccc3c2[C@H]1Cc1ccc(O)c(O)c1-3 [Apomorphine hydrochloride hemihydrate]
[1]
  Raw Signal: 53248
[2]
  Z-score: -0.8217

## CCCCC1(C2CCCC2)Cc2cc(OCC(=O)O)c(Cl)c(Cl)c2C1=O (stereo in doubt) [R(+)-Butylindazone]
[4]
  Raw Signal: 53463
[6]
  Z-score: -0.3461

## Cl.NOCC(=O)O.NOCC(=O)O
[1]
  Raw Signal: 66377
[3]
  Z-score: 1.491

## [Cl-].[Li+] [Lithium Chloride]
[7]
  Raw Signal: 59222
[8]
  Z-score: 0.8235

## CCOC(=O)c1ncn2c1CN(C)C(=O)c1cc(F)ccc1-2 [Flumazenil]
[1]
  Raw Signal: 52634
[2]
  Z-score: -0.5144

## Cl.NC(N)=NCCNS(=O)(=O)c1cccc2cnccc12 [HA-1004 hydrochloride]
[1]
  Raw Signal: 50838
[2]
  Z-score: -0.8792

## COc1ccc2c(c1)c(CC(=O)O)c(C)n2C(=O)c1ccccc1
[1]
  Raw Signal: 53454
[2]
  Z-score: -0.7854

## O=C(O)[C@H]1CCCN[C@H]1C(=O)O (racemic)
[7]
  Raw Signal: 60739
[8]
  Z-score: 0.9161

## O=C(O)CCCCCCCC(=O)O [Azelaic acid]
[7]
  Raw Signal: 63677
[8]
  Z-score: 1.015

## NC(=NCc1ccccc1)NC(=O)c1nc(Cl)c(N)nc1N [Benzamil hydrochloride]
[4]
  Raw Signal: 59018
[5]
  Z-score: 0.1946

## COC(=O)[C@@H]1[C@H]2C[C@H]3c4[nH]c5ccccc5c4CCN3C[C@@H]2CC[C@@H]1O [Yohimbine hydrochloride]
[4]
  Raw Signal: 57737
[5]
  Z-score: 0.3328

## S=C=Nc1ccc2oc(C3=NCCN3)cc2c1 [BU99006]
[4]
  Raw Signal: 56328
[5]
  Z-score: 0.2358

## O=C(c1ccc2c(c1)OCCO2)N1CCCCC1 [CX 546]
[7]
  Raw Signal: 57767
[8]
  Z-score: 0.528

## Br.Cc1o[nH]c(=O)c1CC(N)C(=O)O (racemic) [(±)-AMPA hydrobromide]
[4]
  Raw Signal: 54656
[6]
  Z-score: -0.1038

## N#C/C(=C\c1ccc(O)c(O)c1)C(=O)NCCCc1ccccc1 [Tyrphostin AG 555]
[4]
  Raw Signal: 55783
[5]
  Z-score: -0.04678

## CC12NC(Cc3ccccc31)c1ccccc12.O=C(O)/C=C\C(=O)O (single isomer, unassigned; (+)) [(+)-MK-801 hydrogen maleate]
[7]
  Raw Signal: 58157
[8]
  Z-score: 0.6324

## CNCCCC1c2ccccc2C=Cc2ccccc21 [Protriptyline hydrochloride]
[4]
  Raw Signal: 55179
[6]
  Z-score: -0.1641

## COc1ccc(CCN(C)CCCC(C#N)(c2cc(OC)c(OC)c(OC)c2)C(C)C)cc1OC.Cl (racemic) [(±)-Methoxyverapamil hydrochloride]
[4]
  Raw Signal: 52492
[6]
  Z-score: -0.3195

## Cl.O=C(Cc1ccc(Cl)c(Cl)c1)N1CCCCC1CN1CCCC1 (stereo not drawn) [BRL 52537 hydrochloride]
[4]
  Raw Signal: 55058
[6]
  Z-score: -0.1876

## COc1cc(C(=O)OCCCN2CCCN(CCCOC(=O)c3cc(OC)c(OC)c(OC)c3)CC2)cc(OC)c1OC [Dilazep hydrochloride]
[4]
  Raw Signal: 56027
[5]
  Z-score: 0.1747

## OC[C@H]1O[C@@H](n2cnc3c(NC4CCCCC4)ncnc32)[C@H](O)[C@@H]1O [N6-Cyclohexyladenosine]
[7]
  Raw Signal: 60438
[8]
  Z-score: 1.07

## NC(=O)CN1CC(O)CC1=O (stereo not drawn) [Oxiracetam]
[4]
  Raw Signal: 55053
[5]
  Z-score: 0.1108

## CNCCCN1c2ccccc2CCc2ccccc21 [Desipramine hydrochloride]
[1]
  Raw Signal: 49945
[2]
  Z-score: -1.061

## CN(C)CCCN1c2ccccc2Sc2ccc(C(F)(F)F)cc21 [Triflupromazine hydrochloride]
[4]
  Raw Signal: 54007
[6]
  Z-score: -0.3918

## C[C@]12CC[C@@H](O)C[C@@H]1CC[C@@H]1[C@@H]2CC[C@]2(C)[C@@H](O)CC[C@@H]12 [5alpha-Androstane-3alpha,17beta-diol]
[1]
  Raw Signal: 54542
[2]
  Z-score: -0.5937

## CC[C@@H](CO)NC(=O)[C@@H]1C=C2c3cccc4c3c(cn4C)C[C@H]2N(C)C1 [Methysergide maleate]
[4]
  Raw Signal: 55881
[5]
  Z-score: 0.2499

## CN1CC[C@@]2(C)c3cc(O)ccc3N(C)[C@@H]12.O=C(O)/C=C/C(=O)O [(-)-Eseroline fumarate]
[7]
  Raw Signal: 57638
[8]
  Z-score: 0.5018

## OC[C@H]1NC[C@H](O)[C@@H](O)[C@@H]1O [1-Deoxynojirimycin hydrochloride]
[7]
  Raw Signal: 59013
[8]
  Z-score: 0.7811

## C=CC1=C(C)c2cc3[nH]c(cc4nc(cc5[nH]c(cc1n2)c(C)c5CCC(=O)O)C(CCC(=O)O)=C4C)c(C)c3C=C [Protoporphyrin IX disodium]
[4]
  Raw Signal: 54546
[6]
  Z-score: -0.2871

## NCCCCN [Putrescine dihydrochloride]
[4]
  Raw Signal: 56490
[5]
  Z-score: 0.09057

## COc1cc(/C=C(\C#N)C(=O)c2ccc(O)c(O)c2)cc(I)c1O [I-OMe-Tyrphostin AG 538]
[4]
  Raw Signal: 53763
[6]
  Z-score: -0.4392

## CC1Cc2cc3c(cc2C(c2ccc(N)cc2)=NN1)OCO3 (stereo not drawn) [GYKI 52895]
[1]
  Raw Signal: 63898
[3]
  Z-score: 1.773

## CCCN(CCC)[C@@H]1CCc2c(F)ccc(O)c2C1.Cl [R(+)-UH-301 hydrochloride]
[4]
  Raw Signal: 54775
[6]
  Z-score: -0.2426

## C[N+](C)(C)CCO.[Br-] [Choline bromide]
  Raw Signal: 58990
  Z-score: 0.1897

## C=CCN1C[C@H](C)N([C@H](c2ccc(C(=O)N(CC)CC)cc2)c2cccc(OC)c2)C[C@H]1C [SNC80]
[4]
  Raw Signal: 54916
[6]
  Z-score: -0.2152

## CCCCCCCCCCCCCCCCCCNC(=O)OCC(COP(=O)([O-])OCC[n+]1ccsc1)OC (stereo not drawn) [CV-3988]
[1]
  Raw Signal: 52703
[2]
  Z-score: -0.6452

## NCCCCCC(=O)O [6-Aminohexanoic acid]
[1]
  Raw Signal: 70191
[3]
  Z-score: 2.162

## CC(CCc1ccccc1)NCC(O)c1ccc(O)c(C(N)=O)c1 (stereo not drawn) [Labetalol hydrochloride]
[4]
  Raw Signal: 53329
[6]
  Z-score: -0.1789

## NS(=O)(=O)c1cc2c(cc1Cl)NCNS2(=O)=O [Hydrochlorothiazide]
[4]
  Raw Signal: 56632
[5]
  Z-score: 0.2975

## N#C/C(=C\c1ccc(O)c(O)c1)C(=O)NCc1ccccc1 [Tyrphostin AG 490]
[4]
  Raw Signal: 54184
[6]
  Z-score: -0.3574

## O=c1c(O)c(-c2ccc(O)cc2O)oc2cc(O)cc(O)c12 [Morin]
[1]
  Raw Signal: 34376
[2]
  Z-score: -3.363
